Source: patent publication US20260265771A1, “METHODS OF INCREASING THE REGENERATION EFFICIENCY IN PLANTS” (Institute of Genetics and Developmental Biology Chinese …, priority 2022, published 2026)
“Also recorded” adds a separate entry of the source.

What was measured:
Assay type in all cases: cell-based, tomato
RER [1] = experiment: pFRK1::LUC expression in A. thaliana protoplasts (receptor activation); conditions: 3 h
Protocol: Data are mean±SD, n=3 repeats. […] Data are mean±SD, n=3 repeats.
Receptor activation was tested by using FRK1 expression as a marker gene. […] Data are mean±SD, n=3 repeats. ***P<0.001 (Student's t test); ns, not significant FRK-Luciferase expression was used as a marker to test REF1 binding-mediated activation of its receptor. Based on these assay, the EC50 was calculated (half-maximal stimulation) of REF1-receptor binding as an assessment of the binding affinity of REF1 to its receptor RER.

[2] = test system: RER1-SERKs receptor complex; experiment: Co-immunoprecipitation of RER with SERKs in tobacco leaves; conditions: 100 nM REF1
Protocol: (§1) FIG. 49—REF1-RER1 regulates regeneration through SERK co-receptors. (a) RER1 complexes with SERK1, SERK3a and SERK3b in a REF1-dependent manner. Tobacco leaves transfected with SERKs-myc and RER1-HA-Flag were treated with 100 nM REF1 before IP with anti-myc agarose. RER1 and SERKs were detected by immunoblotting with anti-Flag or anti-myc antibodies, respectively. (b and c) REF1-induced callus formation of indicated genotypes. Hypocotyl explants were cultured on CIM with or without 1 nM REF1 for 14 d before callus phenotype was scored. Shown are representative callus images (b) and quantification of the callus projection area (c). Bars, 1 mm. Data are mean±SE. n=30 hypocotyl explants. (d and e) REF1-induced shoot organogenesis of indicated genotypes. Hypocotyl explants were cultured on CIM for 14 d and then transferred to SIM with or without 1 nM REF1 for 21d before shoot organogenesis phenotype was scored. Shown are representative images of hypocotyl explants (d) and the number of regenerated shoots per explant (e). Bars, 0.5 cm. Data are mean±SE. n=50 hypocotyl explants. In (c), the projected area of callus was quantified by Image J. Box plots represented the distribution of projected callus area. […] In (c) and (e), data points from three biological replicates were analysed with a one-sided Kruskal-Wallis test with Holm correction, followed by post hoc Dunn's test. […]

[3] = test system: serk and sIwind1 mutant hypocotyl explants; experiment: Callus formation and shoot organogenesis of serk and sIwind1 mutant hypocotyl explants; conditions: 1 nM REF1
Protocol: as §1, with “(d and e) REF1-induced shoot organogenesis of indicated genotypes.” left out, “Shown are representative images of hypocotyl explants (d) and the number of regenerated shoots per explant (e). Bars, 0.5 cm. Data are mean±SE. n=50 hypocotyl explants.” left out
(a) Induction of the SIWIND1 promoter activity at the wound sites of hypocotyl explants. […] Hypocotyl explants were cultured on CIM with or without 1 nM REF1 for 14 d before callus phenotype was scored. […]

RER [4] = experiment: Autophosphorylation assay of RER in tobacco leaves; conditions: 100 nM, 20 min

Sequence of RER (as listed by the source): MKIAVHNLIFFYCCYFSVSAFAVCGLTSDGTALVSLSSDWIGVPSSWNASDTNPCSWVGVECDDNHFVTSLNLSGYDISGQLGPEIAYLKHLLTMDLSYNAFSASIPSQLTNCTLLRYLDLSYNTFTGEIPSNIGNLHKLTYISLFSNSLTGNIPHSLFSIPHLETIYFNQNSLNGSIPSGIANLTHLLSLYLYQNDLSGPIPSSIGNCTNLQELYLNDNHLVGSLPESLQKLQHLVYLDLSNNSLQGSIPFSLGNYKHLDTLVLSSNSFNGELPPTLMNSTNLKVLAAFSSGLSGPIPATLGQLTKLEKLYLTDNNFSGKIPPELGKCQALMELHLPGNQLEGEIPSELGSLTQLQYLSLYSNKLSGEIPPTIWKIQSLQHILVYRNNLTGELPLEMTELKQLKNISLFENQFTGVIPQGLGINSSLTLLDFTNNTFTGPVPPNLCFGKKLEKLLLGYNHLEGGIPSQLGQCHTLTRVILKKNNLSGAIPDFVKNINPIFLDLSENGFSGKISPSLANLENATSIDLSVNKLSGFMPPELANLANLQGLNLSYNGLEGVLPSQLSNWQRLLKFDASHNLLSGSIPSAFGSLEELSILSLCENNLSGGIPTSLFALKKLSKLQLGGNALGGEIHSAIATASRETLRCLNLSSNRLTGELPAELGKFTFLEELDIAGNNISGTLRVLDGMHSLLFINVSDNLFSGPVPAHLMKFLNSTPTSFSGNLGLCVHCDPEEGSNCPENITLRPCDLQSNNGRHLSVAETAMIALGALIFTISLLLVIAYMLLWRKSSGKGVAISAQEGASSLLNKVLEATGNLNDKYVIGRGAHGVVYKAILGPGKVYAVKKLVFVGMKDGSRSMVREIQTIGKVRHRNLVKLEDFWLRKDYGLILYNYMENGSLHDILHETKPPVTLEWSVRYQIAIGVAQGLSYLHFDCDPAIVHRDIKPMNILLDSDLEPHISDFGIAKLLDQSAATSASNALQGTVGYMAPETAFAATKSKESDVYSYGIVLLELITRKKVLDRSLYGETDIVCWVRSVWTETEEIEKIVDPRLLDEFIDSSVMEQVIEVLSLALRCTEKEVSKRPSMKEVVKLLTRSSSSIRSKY
Sequence of RER1-SERKs receptor complex (as listed by the source): as above

binding-mediated activation of receptor RER (pFRK1::LUC expression) (RER [1]; 100 nM): bound
binding affinity of REF1 to its receptor RER (RER [1]; indicated concentrations): high affinity
Sequence: ATDRRGRPPSRPKVGSGPPPQNN (listed as Solanum lycopersicum) [REF1, 23 amino acid tomato peptide cleaved from precursor PROSIPEP]
complex formation of RER with SERK1, SERK3a and SERK3b (co-IP) [2]: could simulate complex formation; also recorded: REF1-dependent
rescue of compromised regenerative capacity ([3]; sIwind1 mutants): could not be rescued
rescue of regenerative defects (callus formation, shoot organogenesis) ([3]; serk3a-1, serk3b-1 and serk3a-1 serk3b-1 mutants): failed to rescue
auto-phosphorylation of RER (RER [4]): triggers auto-phosphorylation
